Reference: US20220226342A1, “COMPOSITIONS AND METHODS OF TREATING LIVER CANCERS” (The Johns Hopkins University, priority 2019, published 2022)

Key:
6 HCC PDO lines [1] = assay: cell cycle analysis; assay type: cell-based, human
Experimental: FIG. 6A-6B. Cell cycle analysis of omacetaxine treated HCC PDOs. […] (6A) The histogram of cell cycle distributions.
The effects on proliferation were assessed to elucidate the omacetaxine mechanisms of action. […] To further understand the effects of omacetaxine on cancer cell proliferation and cell cycle, the inventors performed FACS analysis of Ki67 protein. Ki-67 is a nuclear protein expressed in proliferating cells (in all phases of the cell cycle except G0)^22,23. Furthermore, the higher expression of Ki67 has been linked to poorer disease free survival and overall survival in HCC^24. […] As caspase 3 is a key molecule in apoptosis, the inventors measured its activated (cleaved) fragment.

PDX26-3 = test system: PDX26-3
Experimental: FIG. 7A-7I. […] Significance was determined with log rank test. […] Error bars represent Mean±standard deviation. […] (7J).
Patient derived xenograft (PDX) models of human cancer are well documented to recapitulate primary tumor biology, as well as response to treatment^28, 29. Two PDX models from HCC patients were established in the inventors' lab with the purpose of creating a platform for further validation of drug leads. The first model, PDX26-3, was established by subcutaneous injection of HCC PDO cells into NOD SCID-IL2R-γ chain-deficient mice (NSG, Jackson Lab). More specifically, PDX26-3 is established from PDO26-3 cells at passage 3. After the initial PDX establishment, the model is perpetuated by implantation of pieces of tumors from current generation PDX mice into the next (as described in Materials and Methods).

[2] = FDA approved dosage, cited from earlier work
6 HCC PDO lines [3] = assay: FACS analysis of BrdU incorporation (proliferation); assay type: cell-based, human
40 HCC PDO lines = assay: omacetaxine dose response, IC50 across all 40 HCC PDO lines; assay type: cell-based; details: Homo sapiens; average of 40 HCC PDO lines; read-out: calculated average IC50 across all 40 HCC PDO lines
Experimental: FIG. 2A-2E. 10 μM drug screening and IC50 calculation across 40 PDOs from 20 HCC patients. (2A). 10 μM drug screening of omacetaxine and sorafenib, regorafenib, lenvatinib and cabozantinib on 40 PDOs derived from 20 HCC patients. X axis—the 40 PDO lines, Y axis—Cell viability. (2B). IC50 curve of 40 PDO lines, x-axis—omacetaxine dose, Y axis—Relative cell viability. (2C). […] (2D). IC50 distribution of 40 HCC PDOs. X axis—PDO lines, Y axis—IC50 number of omacetaxine for each PDO.

MET = assay: oncoprotein staining of HCC PDX tumor frozen sections; assay type: in vivo, human; details: HCC PDX tumor (50 HCC PDX) vs control
Text: (§1) FIG. 8A-8G. Omacetaxine inhibits tumor cell proliferation and increases apoptosis and suppressed HCC oncoprotein expression in vivo. (8A-8D) Immunofluorescent staining of Ki67 and cleaved caspase 3 expression in 26-3 PDX model. 8A-8B show the IF staining pictures, 8C-8D show the relative Ki67 or cleaved caspase 3 positive cell number in omacetaxine treated mice compared with control treatment groups. (8E-8G) Omacetaxine suppressed HCC oncoprotein: c-Myc, Beta-catenin and MET protein expression in 50 HCC PDX treated with Omacetaxine vs control.
(§2) Tumor masses from HCC PDX mice treated with omacetaxine and negative control, respectively, were utilized to prepare frozen sections, which were then stained for the c-Myc, MET and beta-catenin.

c-Myc = assay: as above; assay type: in vivo, human; details: HCC PDX tumor (50 HCC PDX) vs control
Text: as §1, §2

beta-catenin = assay: as above; assay type: in vivo, human; details: HCC PDX tumor (50 HCC PDX) vs control
Text: as §1, §2

COC(=O)C[C@](O)(CCCC(C)(C)O)C(=O)O[C@@H]1C(OC)=C[C@]23CCCN2CCc2cc4c(cc2[C@H]13)OCO4 [omacetaxine, omacetaxine mepusuccinate]
cell cycle arrest (6 HCC PDO lines [1]; 6 HCC PDOs, dose-dependent): induces G0/G1 arrest
G0/G1 fraction with rising omacetaxine dose (6 HCC PDO lines [1]; all 6 HCC PDOs): around 90%
size of the tumors at the end of the treatment (PDX26-3; PDX26-3, day 30, vs control): statistically significant difference
weight of the tumors at the end of the treatment (PDX26-3; PDX26-3, day 30, vs control): statistically significant difference
increase in survival (PDX26-3; PDX26-3 mice, statistically significant): approximately 100%
tumor growth (PDX26-3; PDX26-3 mice, treatment applied directly into the tumor): halting of tumor growth
body mass of mice, treatment vs. control group (PDX26-3; mouse, in vivo): no difference in the body mass
infectious complications, share of patients [2]: approximately 5%
main side effects ([2]; patients): hematologic depletion (thrombocytopenia, anemia, and neutropenia) and diarrhea
BrdU incorporation in newly synthetized DNA (proliferation) (6 HCC PDO lines [3]): inhibited incorporation
IC50 (40 HCC PDO lines): 35.2 nM
MET expression in vivo (MET): downregulated
c-Myc expression in vivo (c-Myc): downregulated
beta-catenin expression in vivo (beta-catenin): downregulated
